# Measured values: patent publication US6900019B1, “In-situ cell extraction and assay method” (Amersham Biosciences UK Limited, priority 1997, dated 2005)
# Several values for one entry are separate records, joined by “and”; a condition that tells them apart may be missing. Identical values can stand only once.
# Assays:
# [1] = test system: rabbit anti-cAMP sera (antigen:antibody binding); experiment: Scintillation proximity radioimmunoassay for cAMP: standard curves with lysis reagents and sequestrants
# Experimental: All assays were carried out in microtitre plates compatible with a microtitre plate beta scintillation counter. Standards (50 μl; 0.2-12.8 pmol/well), antisera (50 μl; at 1:11000 dilution), tracer (50 ul; 10000-20000 cpm) are added to anti-rabbit coated SPA beads (50 μl; 20 mg/ml). Non-specific binding was determined in the absence of specific rabbit antisera. SPA anti-rabbit reagent is placed onto a magnetic stirrer to ensure a homogeneous suspension before pipetting. All wells contained a total volume of 200 μl. The plates were sealed and incubated at room temperature (15-30° C.) for 15-20 hours. The amount of [^125I]cAMP bound to the SPA fluomicrospheres was determined by counting in a microtitre plate beta scintillation counter for 2 minutes.
# Experiments were set up with:— • a) Working standards (4-256 pmol/ml; 0.2-12.8 pmol/well) were prepared in assay buffer (0.05M sodium acetate buffer containing 0.01% sodium azide) only (control) or assay buffer containing lysis reagent (e.g. DTAB, CPC or SDS; see experiment 1) at various concentrations. • b) Rabbit anti-cAMP sera prepared in assay buffer only (control) or assay buffer containing sequestrating agent at various concentrations depending on the experiment. • c) Radioactive tracer: adenosine 3′ 5′-cyclic phosphoric acid 2′-O-succinyl-3-[^125I] iodotyrosine methyl ester prepared in assay buffer only (control) or assay buffer containing sequestrating agent at various concentrations depending on the experiment. • d) Donkey anti-rabbit IgG coupled to scintillation proximity fluomicrospheres prepared in assay buffer only (control) or assay buffer containing sequestrating agent at various concentrations depending on the experiment. Experiment 1: Inhibition of Antigen and Antibody Binding by Several Lysis Reagents Method
# In these experiments, standard curves were prepared for cAMP using the SPA immunoassay technique, described above, where working standards of cAMP were prepared in several lysis reagents at 1% (w/v) or 2% (w/v) final concentration. The detergents investigated included dodecyl trimethyl ammonium bromide (DTAB; Sigma Chemical Co. D8638), benzethonium chloride (BZC; Aldrich; B470-8), cetyl pyridinium chloride (CPC; Sigma Chemical Co; C9002), sodium dodecyl sulphate (SDS, Sigma chemical Co; L4509) and N-dodecyl-N,N-dimethyl-3-ammonio-1-propanesulphonate (DDAPS; Sigma Chemical Co.; D4516).
# In these experiments, standard curves for cAMP were prepared using the SPA immunoassay technique described above, where working standards of cAMP were prepared in 1% (w/v), 1.5% (w/v) or 2% (w/v) lysis reagents (DTAB, SDS or CPC). The control consisted of no lysis reagent or cyclodextrin added. The effect including 2.5% (w/v) alpha-cyclodextrin (alpha-CD) (Sigma Chemical Co.; C4642) on antigen:antibody binding was investigated. Here, tracer, antisera and SPA beads were prepared in assay buffer containing 2.5% (w/v) alpha-CD. A second control tested the effect of 2.5% (w/v) alpha-CD on the standard curve without addition of lysis reagent.
# In this experiment, standard curves for cAMP were prepared using the SPA radioimmunoassay where working standards of cAMP were prepared in 1% (w/v) DTAB. The effect of including 1% (w/v), 2% (w/v), 2.5% (w/v) and 5% (w/v) alpha-cyclodextrin on antigen:antibody binding was investigated. Here, tracer, antisera and SPA beads were prepared in assay buffer containing alpha-CD at the above concentrations. The control consisted of no lysis or cyclodextrin added to the assay.
# In this experiment, standard curves for cAMP were prepared using the SPA immunoassay technique where working standards were prepared 1% (wt) lysis reagent (DTAB). The effect of including 2.5% (w/v) alpha-cyclodextrin (CD) 2.5% (w/v) beta-cyclodextrin (beta-CD) (Sigma is Chemical Co.; C4767) and 2.5% (w/v) gamma-cyclodextrin (gamma-CD) (Sigma Chemical Co.; 4892) on antigen:antibody binding was investigated. […]
# [2] = test system: binding protein prepared from bovine adrenal cortex; experiment: Radioreceptor binding assay for D-myo-inositol 1,4,5-trisphosphate (IP3) with lysis reagent and sequestrant; conditions: 0.5% w/v DTAB in standards, no sequestrant
# Experimental: Bovine adrenal glands were removed from animals and stored at −20° C. before preparing the binding protein. The cortex was dissected from the adrenal glands, homogenised in NaHCO3 (20 mM) with dithiothreitol (1 mM), and the homogenate centrifuged at 5000 g for 15 minutes. The supernatant was centrifuged at 35000 g for 20 minutes, the resulting pellet resuspended in the homogenisation buffer and centrifuged again at 35000 g for 20 minutes. The final pellet was resuspended in homogenisaton buffer at a protein concentration of between 20-40 mg/ml.
# For the assay, aliquots (100 μl) of the bovine adrenal cortex microsome preparation were incubated in 100 μl of 0.1M Tris buffer (pH9.0), containing 4 mM EDTA and 4 mg/ml bovine serum albumin. Incubations were carried out for 15 minutes in a final volume of 0.4 ml with [^3H] inositol 1,4,5-trisphosphate (100 μl; 6000 cpm) sample or standard (100 μl; 0.19-25 pmol inositol 1,4,5-trisphosphate/assay tube). Non-specific binding was determined in the presence of 1 nmol inositol 1,4,5-trisphosphate/tube. Incubations were terminated by centrifugation (12000 g) (10 minutes at 4° C.) and removal of the supernatant by gentle decantation. Particulate bound radioactivity was analysed, after suspension in 0.15M sodium hydroxide followed by neutralisation with 10% acetic acid, by liquid scintillation counting […]
smiles,measurement,setting,value
"CCCCCCCCCCCC[N+](C)(C)C.[Br-] [DTAB, dodecyl trimethyl ammonium bromide]","[125I]cAMP bound to SPA beads, counts per minute","[1]; 1% lysis reagent, no sequestrant, 0.2 pmol cAMP/well",1118 cpm and 1575 cpm
same,"[125I]cAMP bound to SPA beads, counts per minute","[1]; 1% lysis reagent, no sequestrant, 0.4 pmol cAMP/well",1098 cpm and 1573 cpm
same,"[125I]cAMP bound to SPA beads, counts per minute","[1]; 1% lysis reagent, no sequestrant, 0.8 pmol cAMP/well",1088 cpm and 1305 cpm
same,"[125I]cAMP bound to SPA beads, counts per minute","[1]; 1% lysis reagent, no sequestrant, 1.6 pmol cAMP/well",977 cpm and 1097 cpm
same,"[125I]cAMP bound to SPA beads, counts per minute","[1]; 1% lysis reagent, no sequestrant, 3.2 pmol cAMP/well",860 cpm and 813 cpm
same,"[125I]cAMP bound to SPA beads, counts per minute","[1]; 1% lysis reagent, no sequestrant, 6.4 pmol cAMP/well",649 cpm and 619 cpm
same,"[125I]cAMP bound to SPA beads, counts per minute","[1]; 1% lysis reagent, no sequestrant, 12.8 pmol cAMP/well",440 cpm and 439 cpm
same,"[125I]cAMP bound to SPA beads, counts per minute","[1]; 1% lysis reagent, no sequestrant, NSB (no specific antisera)",130 cpm and 182 cpm
same,"[125I]cAMP bound to SPA beads, counts per minute","[1]; 1% lysis reagent, no sequestrant, Zero standard",1429 cpm and 1586 cpm
same,"[125I]cAMP bound to SPA beads, counts per minute","[1]; 1.5% lysis reagent only, 0.2 pmol cAMP/well",799 cpm
same,"[125I]cAMP bound to SPA beads, counts per minute","[1]; 1.5% lysis reagent only, 0.4 pmol cAMP/well",713 cpm
same,"[125I]cAMP bound to SPA beads, counts per minute","[1]; 1.5% lysis reagent only, 0.8 pmol cAMP/well",688 cpm
same,"[125I]cAMP bound to SPA beads, counts per minute","[1]; 1.5% lysis reagent only, 1.6 pmol cAMP/well",513 cpm
same,"[125I]cAMP bound to SPA beads, counts per minute","[1]; 1.5% lysis reagent only, 3.2 pmol cAMP/well",426 cpm
same,"[125I]cAMP bound to SPA beads, counts per minute","[1]; 1.5% lysis reagent only, 6.4 pmol cAMP/well",376 cpm
same,"[125I]cAMP bound to SPA beads, counts per minute","[1]; 1.5% lysis reagent only, 12.8 pmol cAMP/well",264 cpm
same,"[125I]cAMP bound to SPA beads, counts per minute","[1]; 1.5% lysis reagent only, NSB (no specific antisera)",237 cpm
same,"[125I]cAMP bound to SPA beads, counts per minute","[1]; 1.5% lysis reagent only, Zero standard",819 cpm
same,"[125I]cAMP bound to SPA beads, counts per minute","[1]; 2% lysis reagent, no sequestrant, 0.2 pmol cAMP/well",231 cpm and 198 cpm
same,"[125I]cAMP bound to SPA beads, counts per minute","[1]; 2% lysis reagent, no sequestrant, 0.4 pmol cAMP/well",231 cpm and 216 cpm
same,"[125I]cAMP bound to SPA beads, counts per minute","[1]; 2% lysis reagent, no sequestrant, 0.8 pmol cAMP/well",201 cpm
same,"[125I]cAMP bound to SPA beads, counts per minute","[1]; 2% lysis reagent, no sequestrant, 1.6 pmol cAMP/well",195 cpm and 179 cpm
same,"[125I]cAMP bound to SPA beads, counts per minute","[1]; 2% lysis reagent, no sequestrant, 3.2 pmol cAMP/well",179 cpm and 176 cpm
same,"[125I]cAMP bound to SPA beads, counts per minute","[1]; 2% lysis reagent, no sequestrant, 6.4 pmol cAMP/well",170 cpm and 144 cpm
same,"[125I]cAMP bound to SPA beads, counts per minute","[1]; 2% lysis reagent, no sequestrant, 12.8 pmol cAMP/well",93 cpm and 78 cpm
same,"[125I]cAMP bound to SPA beads, counts per minute","[1]; 2% lysis reagent, no sequestrant, NSB (no specific antisera)",145 cpm and 138 cpm
same,"[125I]cAMP bound to SPA beads, counts per minute","[1]; 2% lysis reagent, no sequestrant, Zero standard",272 cpm and 217 cpm
same,binding of [3H]IP3 to the receptor preparation,[2],total inhibition of binding
